Measured values: patent US11814327B2, “Fertilizers containing animal nutrient core packet” (Pursell Agri-Tech, LLC, priority 2010, dated 2023)

System: spinach variety (Bloomsdale Long-Standing)
Assay: Zinc uptake in spinach plants from application of fertilizer containing animal nutrient core packet (8-kg pot test)
Format: in vivo
Settings: Soil applied Zn nutrient core product
Protocol: In this example tests were performed to quantify the incorporation of zinc in a common spinach variety (Bloomsdale Long-Standing) employing compositions of the present invention. The tests quantified the increase in leaf zinc content due to application of compositions of the present invention containing zinc. The impact of the present compositions on spinach biomass increase was not the primary objective. In addition to applications of the present compositions to soil, for comparative purposes, foliar application of zinc solutions were applied to spinach leaves. Direct foliar applications provide an indication of potentially maximum amounts of zinc uptake into the leaves. 1. Soil • 8 kg Greenville loam (fine, kaolinitic, thermic Rhodie Kandiudults), pH=6.2, organic matter=1.4%, CEC=5.2 cmol kg^−1. The soil has been depleted of nutrients by previous cropping of tomatoes and cabbage. 2. Experimental Units • The spinach was grown in 8-kg pots. Each pot was transplanted with two spinach seedlings on Mar. 5, 2010 3. Blanket Fertilizer Rates—Basal • All fertilizer materials were laboratory grade reagents to avoid contamination and antagonistic interaction with Zn, Fe and/or I. • Nitrogen: 250 mg N kg^−1 or 2 g N por^−1. […] Crop Data Analysis • The fresh and dried weight of spinach leaves was determined and analyzed for N, P, K, Zn, Fe and I. [table]

O=C([O-])CN(CCN(CC(=O)[O-])CC(=O)[O-])CC(=O)[O-].[Na+].[Na+].[Zn+2] [Zinc EDTA]
effectiveness as Zn source in the nutrient core in increasing Zn tissue content in spinach: more effective than ZnSO4
